According to US5190741A, “Agents for diagnosing and treating melanomas, aromatic halogenated derivatives usable as such agents and their preparation” (Institut National de la Sante et de la Recherche Medicale …, priority 1989, dated 1993):
Read-outs that look alike come from different tables or passages of the source.

Key:
[1] = tested on: Beu melanic human melanoma; assay: Scintillation imaging, nu/nu SSCUP nude mice bearing Beu; assay type: in vivo; conditions: 3 to 17 h after injection
From the text: The mice bearing grafted tumors are anesthetized by the i.p. injection of sodium pentobarbital 1/5 and immobilized under a scintillation camera (Gammatome II, CGR) equipped with a pinhole 3-360 collimator, sensitivity 3.2 10^-4.
nu/nu SSCUP nudes bearing human melanomas Beu and Dau.
The scanning observations have also been carried out after the injection of B into the following mice:
nu/nu SSCUP nudes bearing the Beu heterotransplant.

[2] = Tissue distribution in C57 BL6 mice bearing B16; assay type: in vivo, mouse; conditions: mouse, iv, 3 umol/animal
Experimental: (§1) The study of the tissue distribution of the ^125 I labelled compounds was performed in mice bearing grafted melanomas (cf. autoradiograms above). […] The animals are sacrificed at different time intervals of 1 to 24 hours after the injection. The blood is collected and the principal organs are excised. Aliquots are weighed and the radioactivity of the samples is measured in a […] 1191 counter (analytic tracer). The counting yield for iodine 125 is 60%. The results are expressed: as a percentage of the injected dose bound per g of tissue (% ID/g); in the form of the ratios [formula] This ratio reflects more precisely the selectivity of a molecule for an organ (tables 2, 4, 6, 8, 10 and 12).

B16 murine melanoma = assay: Tissue distribution in C57 BL6 mice bearing B16; assay type: in vivo, mouse
Experimental: as §1

[3] = kidney, read-out: kidney % ID/g
[4] = muscle, read-out: muscle % ID/g
[5] = plasma, read-out: plasma % ID/g

CCNCCNC(=O)c1ccc(I)cc1 [Derivative B, N-(2-ethylaminoethyl) 4-iodo benzamide]
tumoral definition [1]: very good tumoral definition
tissue uptake at 1 h ([2]; blood, read-out: blood % ID/g): 1.31 %ID/g
tissue uptake at 2 h ([2]; blood, read-out: blood % ID/g): 0.67 %ID/g
tissue uptake at 4 h ([2]; blood, read-out: blood % ID/g): 0.27 %ID/g
tissue uptake at 6 h ([2]; blood, read-out: blood % ID/g): 0.14 %ID/g
tissue uptake at 24 h ([2]; blood, read-out: blood % ID/g): 0.03 %ID/g
tissue uptake at 1 h ([2]; brain, read-out: brain % ID/g): 3.26 %ID/g
tissue uptake at 2 h ([2]; brain, read-out: brain % ID/g): 2.09 %ID/g
tissue uptake at 4 h ([2]; brain, read-out: brain % ID/g): 1.17 %ID/g
tissue uptake at 6 h ([2]; brain, read-out: brain % ID/g): 0.5 %ID/g
tissue uptake at 24 h ([2]; brain, read-out: brain % ID/g): 0.01 %ID/g
tissue uptake at 1 h ([2]; eye, read-out: eye % ID/g): 0.45 %ID/g
tissue uptake at 2 h ([2]; eye, read-out: eye % ID/g): 0.43 %ID/g
tissue uptake at 4 h ([2]; eye, read-out: eye % ID/g): 0.42 %ID/g
tissue uptake at 6 h ([2]; eye, read-out: eye % ID/g): 0.38 %ID/g
tissue uptake at 24 h ([2]; eye, read-out: eye % ID/g): 0.24 %ID/g
tissue uptake at 1 h [2, 3]: 14.4 %ID/g
tissue uptake at 2 h [2, 3]: 8.64 %ID/g
tissue uptake at 4 h [2, 3]: 4.42 %ID/g
tissue uptake at 6 h [2, 3]: 1.86 %ID/g
tissue uptake at 24 h [2, 3]: 0.16 %ID/g
tissue uptake at 1 h ([2]; liver, read-out: liver % ID/g): 6.96 %ID/g
tissue uptake at 2 h ([2]; liver, read-out: liver % ID/g): 3.72 %ID/g
tissue uptake at 4 h ([2]; liver, read-out: liver % ID/g): 2.05 %ID/g
tissue uptake at 6 h ([2]; liver, read-out: liver % ID/g): 0.96 %ID/g
tissue uptake at 24 h ([2]; liver, read-out: liver % ID/g): 0.22 %ID/g
tissue uptake at 1 h ([2]; lung, read-out: lungs % ID/g): 14.4 %ID/g
tissue uptake at 2 h ([2]; lung, read-out: lungs % ID/g): 8 %ID/g
tissue uptake at 4 h ([2]; lung, read-out: lungs % ID/g): 4.49 %ID/g
tissue uptake at 6 h ([2]; lung, read-out: lungs % ID/g): 2.1 %ID/g
tissue uptake at 24 h ([2]; lung, read-out: lungs % ID/g): 0.05 %ID/g
tissue uptake at 1 h [2, 4]: 2.55 %ID/g
tissue uptake at 2 h [2, 4]: 1.33 %ID/g
tissue uptake at 4 h [2, 4]: 0.67 %ID/g
tissue uptake at 6 h [2, 4]: 0.2 %ID/g
tissue uptake at 24 h [2, 4]: 0.02 %ID/g
tissue uptake at 1 h [2, 5]: 0.73 %ID/g
tissue uptake at 2 h [2, 5]: 0.4 %ID/g
tissue uptake at 4 h [2, 5]: 0.21 %ID/g
tissue uptake at 6 h [2, 5]: 0.13 %ID/g
tissue uptake at 24 h [2, 5]: 0.02 %ID/g
tissue uptake at 1 h ([2]; tumor, read-out: tumor % ID/g): 6.03 %ID/g
tissue uptake at 2 h ([2]; tumor, read-out: tumor % ID/g): 5.73 %ID/g
tissue uptake at 4 h ([2]; tumor, read-out: tumor % ID/g): 4.36 %ID/g
tissue uptake at 6 h ([2]; tumor, read-out: tumor % ID/g): 4.69 %ID/g
tissue uptake at 24 h ([2]; tumor, read-out: tumor % ID/g): 0.49 %ID/g
intratumoral concentrations and ratios compared with A (B16 murine melanoma; 4 to 8 h, melanic melanomas, preliminary): markedly higher than those observed with A
brain/blood ratio (B16 murine melanoma; 1 h): 2,48
eye/blood ratio (B16 murine melanoma; 1 h): 9,70
kidney/blood ratio (B16 murine melanoma; 1 h): 10,92
liver/blood ratio (B16 murine melanoma; 1 h): 5,32
lungs/blood ratio (B16 murine melanoma; 1 h): 11,00
muscle/blood ratio (B16 murine melanoma; 1 h): 1,95
plasma/blood ratio (B16 murine melanoma; 1 h): 0,56
tumor/blood ratio (B16 murine melanoma; 1 h): 4,70
brain/blood ratio (B16 murine melanoma; 2 h): 3,11
eye/blood ratio (B16 murine melanoma; 2 h): 17,50
kidney/blood ratio (B16 murine melanoma; 2 h): 12,82
liver/blood ratio (B16 murine melanoma; 2 h): 5,55
lungs/blood ratio (B16 murine melanoma; 2 h): 11,94
muscle/blood ratio (B16 murine melanoma; 2 h): 1,96
plasma/blood ratio (B16 murine melanoma; 2 h): 0,60
tumor/blood ratio (B16 murine melanoma; 2 h): 8,51
brain/blood ratio (B16 murine melanoma; 4 h): 4,33
eye/blood ratio (B16 murine melanoma; 4 h): 39,70
kidney/blood ratio (B16 murine melanoma; 4 h): 16,38
liver/blood ratio (B16 murine melanoma; 4 h): 7,58
lungs/blood ratio (B16 murine melanoma; 4 h): 16,64
muscle/blood ratio (B16 murine melanoma; 4 h): 2,49
plasma/blood ratio (B16 murine melanoma; 4 h): 0,79
tumor/blood ratio (B16 murine melanoma; 4 h): 16,17
brain/blood ratio (B16 murine melanoma; 6 h): 3,51
eye/blood ratio (B16 murine melanoma; 6 h): 73
kidney/blood ratio (B16 murine melanoma; 6 h): 13,04
liver/blood ratio (B16 murine melanoma; 6 h): 6,80
lungs/blood ratio (B16 murine melanoma; 6 h): 14,66
muscle/blood ratio (B16 murine melanoma; 6 h): 1,47
plasma/blood ratio (B16 murine melanoma; 6 h): 0,90
tumor/blood ratio (B16 murine melanoma; 6 h): 36
contrast index of melanic tumors vs neighbouring muscles or organs, compared with A (B16 murine melanoma; 6 hours): the majority of these indices are higher for B than for A
brain/blood ratio (B16 murine melanoma; 24 h): 0,46
eye/blood ratio (B16 murine melanoma; 24 h): 200
kidney/blood ratio (B16 murine melanoma; 24 h): 5,24
liver/blood ratio (B16 murine melanoma; 24 h): 7,49
lungs/blood ratio (B16 murine melanoma; 24 h): 1,74
muscle/blood ratio (B16 murine melanoma; 24 h): 0,75
plasma/blood ratio (B16 murine melanoma; 24 h): 0,77
tumor/blood ratio (B16 murine melanoma; 24 h): 16
concentrations and tumor/blood ratios compared with A (B16 murine melanoma; 24 hours, melanic melanomas, preliminary): lower than those of A
marker of the B16 murine melanoma (B16 murine melanoma; mouse, in vivo): markers of the B16 murine melanoma
